Measurements published in patent US9617602B2, “Methods and compositions for determining resistance to androgen receptor therapy” (Aragon Pharmaceuticals, Inc., priority 2012, dated 2017).

System: LNCaP/AR(cs) cells
Test: Endogenous gene transcriptional assay (real-time PCR of androgen responsive genes);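 for ORM1 expression, agonist transcription: LNCaP/AR(cs) cells without added R1881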;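 for PLD1 expression, agonist transcription: LNCaP/AR(cs) cells without added R1881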;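 for PSA expression, agonist transcription: LNCaP/AR(cs) cells without added R1881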;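 for SLUG expression, agonist transcription: LNCaP/AR(cs) cells without added R1881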;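 for TMPRSS2 expression, agonist transcription: LNCaP/AR(cs) cells without added R1881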
Type: cell-based, human
[1] = Table 4A, 1 nM R1881 or 30 μM compound, vehicle=1.00

Question: What does the source list for `CNC(=O)c1ccc(N2C(=S)N(c3cnc(C#N)c(C(F)(F)F)c3)C(=O)C23CCC3)cc1F` [ARN-509]?
Answer: NCAPD3 gene expression [1]: 0.91; NKX3.1 gene expression [1]: 1.13; NOV gene expression [1]: 1.04; ORM1 gene expression [1]: 0.84; PLD1 gene expression [1]: 1.04; PSA gene expression [1]: 1.43; SLUG gene expression [1]: 1.03; STEAP4 gene expression [1]: 0.90; TMPRSS2 gene expression [1]: 1.06; AMIGO2 expression, agonist transcription (−R1881, 0.3 μM): 1.14; BDNF expression, agonist transcription (−R1881, 0.3 μM): 1.15; CAM2KN1 expression, agonist transcription (−R1881, 0.3 μM): 0.90; FASN expression, agonist transcription (−R1881, 0.3 μM): 0.46; FKBP5 expression, agonist transcription (−R1881, 0.3 μM): 0.99; HPGD expression, agonist transcription (−R1881, 0.3 μM): 0.81; NCAPD3 expression, agonist transcription (−R1881, 0.3 μM): 0.72; NKX3.1 expression, agonist transcription (−R1881, 0.3 μM): 1.11; NOV expression, agonist transcription (−R1881, 0.3 μM): 1.12; ORM1 expression, agonist transcription (−R1881, 0.3 μM): 1.37; PLD1 expression, agonist transcription (−R1881, 0.3 μM): 1.28; PSA expression, agonist transcription (−R1881, 0.3 μM): 0.44; SLUG expression, agonist transcription (−R1881, 0.3 μM): 0.38; STEAP4 expression, agonist transcription (−R1881, 0.3 μM): 0.94; TMPRSS2 expression, agonist transcription (−R1881, 0.3 μM): 0.99; AMIGO2 expression, agonist transcription (−R1881, 1 μM): 0.69; BDNF expression, agonist transcription (−R1881, 1 μM): 0.93; CAM2KN1 expression, agonist transcription (−R1881, 1 μM): 0.76; FASN expression, agonist transcription (−R1881, 1 μM): 0.40; FKBP5 expression, agonist transcription (−R1881, 1 μM): 0.71; HPGD expression, agonist transcription (−R1881, 1 μM): 0.56; NCAPD3 expression, agonist transcription (−R1881, 1 μM): 0.74; NKX3.1 expression, agonist transcription (−R1881, 1 μM): 0.68; NOV expression, agonist transcription (−R1881, 1 μM): 1.00; ORM1 expression, agonist transcription (−R1881, 1 μM): 1.79; PLD1 expression, agonist transcription (−R1881, 1 μM): 0.66; PSA expression, agonist transcription (−R1881, 1 μM): 0.49; SLUG expression, agonist transcription (−R1881, 1 μM): 0.42; STEAP4 expression, agonist transcription (−R1881, 1 μM): 0.77; TMPRSS2 expression, agonist transcription (−R1881, 1 μM): 0.64; AMIGO2 expression, agonist transcription (−R1881, 3 μM): 0.89; BDNF expression, agonist transcription (−R1881, 3 μM): 1.03; CAM2KN1 expression, agonist transcription (−R1881, 3 μM): 0.99; FASN expression, agonist transcription (−R1881, 3 μM): 0.42; FKBP5 expression, agonist transcription (−R1881, 3 μM): 0.91; HPGD expression, agonist transcription (−R1881, 3 μM): 0.78; NCAPD3 expression, agonist transcription (−R1881, 3 μM): 0.73; NKX3.1 expression, agonist transcription (−R1881, 3 μM): 0.73; NOV expression, agonist transcription (−R1881, 3 μM): 1.11; ORM1 expression, agonist transcription (−R1881, 3 μM): 1.20; PLD1 expression, agonist transcription (−R1881, 3 μM): 0.88; PSA expression, agonist transcription (−R1881, 3 μM): 0.58; SLUG expression, agonist transcription (−R1881, 3 μM): 0.52; STEAP4 expression, agonist transcription (−R1881, 3 μM): 1.05; TMPRSS2 expression, agonist transcription (−R1881, 3 μM): 1.04; AMIGO2 expression, agonist transcription (−R1881, 10 μM): 0.65; BDNF expression, agonist transcription (−R1881, 10 μM): 1.03; CAM2KN1 expression, agonist transcription (−R1881, 10 μM): 0.78; FASN expression, agonist transcription (−R1881, 10 μM): 0.41; FKBP5 expression, agonist transcription (−R1881, 10 μM): 0.75; HPGD expression, agonist transcription (−R1881, 10 μM): 0.61; NCAPD3 expression, agonist transcription (−R1881, 10 μM): 0.74; NKX3.1 expression, agonist transcription (−R1881, 10 μM): 0.85; NOV expression, agonist transcription (−R1881, 10 μM): 0.98; ORM1 expression, agonist transcription (−R1881, 10 μM): 0.97; PLD1 expression, agonist transcription (−R1881, 10 μM): 0.65; PSA expression, agonist transcription (−R1881, 10 μM): 0.61; SLUG expression, agonist transcription (−R1881, 10 μM): 0.56; STEAP4 expression, agonist transcription (−R1881, 10 μM): 0.56; TMPRSS2 expression, agonist transcription (−R1881, 10 μM): 0.62; AMIGO2 expression, agonist transcription (−R1881, 30 μM): 2.41; BDNF expression, agonist transcription (−R1881, 30 μM): 1.80; CAM2KN1 expression, agonist transcription (−R1881, 30 μM): 1.56; FASN expression, agonist transcription (−R1881, 30 μM): 1.30; FKBP5 expression, agonist transcription (−R1881, 30 μM): 1.87; HPGD expression, agonist transcription (−R1881, 30 μM): 1.86; NCAPD3 expression, agonist transcription (−R1881, 30 μM): 1.34; NKX3.1 expression, agonist transcription (−R1881, 30 μM): 2.24; NOV expression, agonist transcription (−R1881, 30 μM): 2.07; ORM1 expression, agonist transcription (−R1881, 30 μM): 1.35; PLD1 expression, agonist transcription (−R1881, 30 μM): 1.33; PSA expression, agonist transcription (−R1881, 30 μM): 1.13; SLUG expression, agonist transcription (−R1881, 30 μM): 1.36; STEAP4 expression, agonist transcription (−R1881, 30 μM): 1.01; TMPRSS2 expression, agonist transcription (−R1881, 30 μM): 2.78
